System: MCH receptors
Assay: MCH receptor activity class (method not given)
[1] = class 1-3 by percent of control at 10^-7 M or IC50
[2] = class by percent of control at 10^−7 M or IC50
[3] = class by percent of control at 10^-7 M or IC50
[4] = MCH receptor, class by percent of control at 10^-7 M or IC50
[5] = activity class per percent of control at 10^-7 M or IC50
[6] = MCH receptor activity class 1-3 (percent of control at 10^-7 M or IC50)

Structure (SMILES): CN(C)c1nc(N[C@H]2CC[C@@H](NC(=O)c3ccc(Cl)c([N+](=O)[O-])c3)CC2)nc2c1CCCC2 [compound 463]
- class [1]: 1 (Class 1: The value of percent of control at 10^−7 M was less than 40% or the value of IC50 was less than 50 nM.)

Structure (SMILES): Cc1cc(C)cc(C(=O)N[C@H]2CC[C@@H](Nc3ncc(C)c(N(C)C)n3)CC2)c1 [compound 2934]
- class [2]: 1 (Class 1: The value of percent of control at 10^−7 M was less than 40% or the value of IC50 was less than 50 nM.)

Structure (SMILES): COc1cc(CC(=O)N[C@H]2CC[C@@H](Nc3nccc(N(C)C)n3)CC2)ccc1OCc1ccccc1 [compound 876]
- class [3]: 3 (Class 3 The value of percent of control at 10^−7 M was more than 60% or the value of IC50 was more than 200 nM.)

Structure (SMILES): Cc1nc(N[C@H]2CC[C@@H](NC(=O)c3cccc(O)n3)CC2)nc(N(C)C)c1C [compound 2863]
- class [2]: 3 (Class 3 The value of percent of control at 10^−7 M was more than 60% or the value of IC50 was more than 200 nM.)

Structure (SMILES): COc1ccc(NC(=O)N[C@H]2CC[C@@H](Nc3cc(N(C)C)c4ccccc4n3)CC2)cc1OC [compound 2150]
- class [3]: 3 (Class 3 The value of percent of control at 10^−7 M was more than 60% or the value of IC50 was more than 200 nM.)

Structure (SMILES): CN(C)c1cc(N[C@H]2CC[C@@H](CNC(=O)c3cc(Cl)sc3Cl)CC2)nc2ccccc12 [compound 210]
- class [4]: 3 (Class 3 The value of percent of control at 10^−7 M was more than 60% or the value of IC50 was more than 200 nM.)

Structure (SMILES): COc1cc(CNC[C@H]2CC[C@@H](Nc3nccc(N(C)C)n3)CC2)cc(OC)c1 [compound 1259]
- class [3]: 3 (Class 3 The value of percent of control at 10^−7 M was more than 60% or the value of IC50 was more than 200 nM.)

Structure (SMILES): Cc1ccc(C(=O)NC[C@H]2CC[C@@H](Nc3nccc(N(C)C)n3)CC2)cc1 [compound 396]
- class [3]: 3 (Class 3 The value of percent of control at 10^−7 M was more than 60% or the value of IC50 was more than 200 nM.)

Structure (SMILES): Cc1cnc(N[C@H]2CC[C@@H](NC(=O)CN(C)c3ccc(F)c(F)c3)CC2)nc1N(C)C [compound 2946]
- class [2]: 1 (Class 1: The value of percent of control at 10^−7 M was less than 40% or the value of IC50 was less than 50 nM.)

Structure (SMILES): COc1ccc(C)cc1NC(=S)N[C@H]1CC[C@@H](Nc2cc(N(C)C)c3ccccc3n2)CC1 [compound 2270]
- class [3]: 3 (Class 3 The value of percent of control at 10^−7 M was more than 60% or the value of IC50 was more than 200 nM.)

Structure (SMILES): Cc1ccc(C(=O)N[C@H]2CC[C@@H](Nc3nccc(N(C)C)n3)CC2)cc1F [compound 292]
- class [3]: 3 (Class 3 The value of percent of control at 10^−7 M was more than 60% or the value of IC50 was more than 200 nM.)

Structure (SMILES): Cc1cc(NC(=O)N[C@H]2CC[C@@H](Nc3nc4c(c(N(C)C)n3)CCCC4)CC2)c([N+](=O)[O-])cc1C [compound 1880]
- class [3]: 3 (Class 3 The value of percent of control at 10^−7 M was more than 60% or the value of IC50 was more than 200 nM.)

Structure (SMILES): CCOC(=O)N[C@H]1CC[C@@H](Nc2nc3c(c(N(C)C)n2)CCCC3)CC1 [compound 1587]
- class (activity class 1-3: percent of control at 10^-7 M or IC50): 3 (Class 3 The value of percent of control at 10^−7 M was more than 60% or the value of IC50 was more than 200 nM.)

Structure (SMILES): COc1ccc(CC(=O)N[C@H]2CC[C@@H](Nc3cc(N(C)C)c4ccccc4n3)CC2)cc1OC [compound 123]
- class [4]: 3 (Class 3 The value of percent of control at 10^−7 M was more than 60% or the value of IC50 was more than 200 nM.)

Structure (SMILES): COc1cccc(NC(=O)N[C@H]2CC[C@@H](Nc3nc4c(c(N(C)C)n3)CCCC4)CC2)c1 [compound 1834]
- class [3]: 3 (Class 3 The value of percent of control at 10^−7 M was more than 60% or the value of IC50 was more than 200 nM.)

Structure (SMILES): CN(C)c1nc(N[C@H]2CC[C@@H](CNC(=O)Cc3csc4ccccc34)CC2)nc2c1CCCC2 [compound 1084]
- class [5]: 3 (Class 3 The value of percent of control at 10^−7 M was more than 60% or the value of IC50 was more than 200 nM.)

Structure (SMILES): Cc1ccc(NC(=O)NC[C@H]2CC[C@@H](Nc3nccc(N(C)C)n3)CC2)cc1 [compound 2441]
- class [6]: 3 (Class 3 The value of percent of control at 10^−7 M was more than 60% or the value of IC50 was more than 200 nM.)

Structure (SMILES): CCOc1cc(CN[C@H]2CC[C@@H](Nc3cc(N(C)C)c4ccccc4n3)CC2)ccc1OC [compound 1097]
- class [5]: 3 (Class 3 The value of percent of control at 10^−7 M was more than 60% or the value of IC50 was more than 200 nM.)

Structure (SMILES): CCCCC/C(=C\c1ccccc1)CN[C@H]1CC[C@@H](Nc2nc3c(c(N(C)C)n2)CCCC3)CC1 [compound 1353]
- class [3]: 3 (Class 3 The value of percent of control at 10^−7 M was more than 60% or the value of IC50 was more than 200 nM.)

Structure (SMILES): Cc1cc(N(C)C)nc(N[C@H]2CC[C@@H](CNC(=O)c3ccc(C#N)cc3)CC2)n1 [compound 2761]
- class [2]: 3 (Class 3 The value of percent of control at 10^−7 M was more than 60% or the value of IC50 was more than 200 nM.)

Structure (SMILES): CN(C)c1ccnc(N[C@H]2CC[C@@H](NC(=O)c3ccc(I)cc3)CC2)n1 [compound 259]
- class [3]: 3 (Class 3 The value of percent of control at 10^−7 M was more than 60% or the value of IC50 was more than 200 nM.)

Structure (SMILES): CN(C)c1ccnc(N[C@H]2CC[C@@H](NC(=S)Nc3ccc(Br)cc3C(F)(F)F)CC2)n1 [compound 2330]
- class [6]: 3 (Class 3 The value of percent of control at 10^−7 M was more than 60% or the value of IC50 was more than 200 nM.)

Structure (SMILES): CN(C)c1cc(N[C@H]2CC[C@@H](CNC(=O)c3cccc4c3-c3ccccc3C4=O)CC2)nc2ccccc12 [compound 226]
- class [3]: 3 (Class 3 The value of percent of control at 10^−7 M was more than 60% or the value of IC50 was more than 200 nM.)

Structure (SMILES): COc1ccc(C)cc1NC(=O)NC[C@H]1CC[C@@H](Nc2nccc(N(C)C)n2)CC1 [compound 2446]
- class [6]: 2 (Class 2: The value of percent of control at 10^−7 M was from 40% to 60% or the value of IC′50 was from 50 nM to 200 nM.)

Structure (SMILES): Cc1cc(Cl)cc(Cl)c1NC(=S)N[C@H]1CC[C@@H](Nc2nccc(N(C)C)n2)CC1 [compound 2346, N-(2,4-dichloro-6-methylphenyl)-N′-(cis-4-{[4-(dimethylamino)pyrimidin-2-yl]amino}cyclohexyl)thiourea]
- class [6]: 2 (Class 2: The value of percent of control at 10^−7 M was from 40% to 60% or the value of IC′50 was from 50 nM to 200 nM.)

Structure (SMILES): CN(C)c1nc(N[C@H]2CC[C@@H](CNC(=O)Cc3ccccc3Br)CC2)nc2c1CCCC2 [compound 642]
- class [3]: 3 (Class 3 The value of percent of control at 10^−7 M was more than 60% or the value of IC50 was more than 200 nM.)

Structure (SMILES): CN(C)c1nc(N[C@H]2CC[C@@H](NC(=O)c3cccc(I)c3)CC2)nc2c1CCCC2 [compound 494]
- class [1]: 1 (Class 1: The value of percent of control at 10^−7 M was less than 40% or the value of IC50 was less than 50 nM.)

Structure (SMILES): Cc1cnc(N[C@H]2CC[C@@H](C(=O)N[C@H](C)c3ccc(F)cc3)CC2)nc1N(C)C [compound 2773, cis-4-{[4-(dimethylamino)-5-methylpyrimidin-2-yl]amino}-N-[(1R)-1-(4-fluorophenyl)ethyl]cyclohexanecarboxamide]
- class [2]: 1 (Class 1: The value of percent of control at 10^−7 M was less than 40% or the value of IC50 was less than 50 nM.)

Structure (SMILES): CN(C)c1ccnc(N[C@H]2CC[C@@H](NC(=O)c3c4ccccc4cc4ccccc34)CC2)n1 [compound 892]
- class [3]: 3 (Class 3 The value of percent of control at 10^−7 M was more than 60% or the value of IC50 was more than 200 nM.)

Structure (SMILES): CC(C)c1cccc(C(C)C)c1NC(=O)N[C@H]1CC[C@@H](Nc2nc3c(c(N(C)C)n2)CCCC3)CC1 [compound 1797, N-(2,6-diisopropylphenyl)-N′-(cis-4-{[4-(dimethylamino)-5,6,7,8-tetrahydroquinazolin-2-yl]amino}cyclohexyl)urea]
- class [3]: 2 (Class 2: The value of percent of control at 10^−7 M was from 40% to 60% or the value of IC′50 was from 50 nM to 200 nM.)

Structure (SMILES): COc1cc(CN[C@H]2CC[C@@H](Nc3cc(N(C)C)c4ccccc4n3)CC2)cc(OC)c1 [compound 1101]
- class [5]: 3 (Class 3 The value of percent of control at 10^−7 M was more than 60% or the value of IC50 was more than 200 nM.)

Structure (SMILES): CN(C)c1nc(N[C@H]2CC[C@@H](NC(=O)c3ccc4nonc4c3)CC2)nc2c1CCCC2 [compound 459]
- class [1]: 1 (Class 1: The value of percent of control at 10^−7 M was less than 40% or the value of IC50 was less than 50 nM.)

Structure (SMILES): COc1cc(Br)cc(CN[C@H]2CC[C@@H](Nc3cc(N(C)C)c4ccccc4n3)CC2)c1O [compound 1092]
- class [5]: 3 (Class 3 The value of percent of control at 10^−7 M was more than 60% or the value of IC50 was more than 200 nM.)

Structure (SMILES): CCc1cccc(C(C)C)c1NC(=S)N[C@H]1CC[C@@H](Nc2nccc(N(C)C)n2)CC1 [compound 2262]
- class [3]: 3 (Class 3 The value of percent of control at 10^−7 M was more than 60% or the value of IC50 was more than 200 nM.)

Structure (SMILES): CN(C)c1cc(N[C@H]2CC[C@@H](CNC(=O)c3cc(F)cc(F)c3)CC2)nc2ccccc12 [compound 161, N-[(cis-4-{[4-(dimethylamino)quinolin-2-yl]amino}cyclohexyl)methyl]-3,5-difluorobenzamide]
- class [4]: 3 (Class 3 The value of percent of control at 10^−7 M was more than 60% or the value of IC50 was more than 200 nM.)

Structure (SMILES): Cc1cc(C(=O)N[C@H]2CC[C@@H](Nc3cc(N(C)C)c4ccccc4n3)CC2)cc(C)c1[N+](=O)[O-] [compound 774, N-(cis-4-{[4-(dimethylamino)quinolin-2-yl]amino}cyclohexyl)-3,5-dimethyl-4-nitrobenzamide]
- class [3]: 2 (Class 2: The value of percent of control at 10^−7 M was from 40% to 60% or the value of IC′50 was from 50 nM to 200 nM.)

Structure (SMILES): CN(C)c1nc(N[C@H]2CC[C@@H](NC(=S)Nc3cccc(C(F)(F)F)c3)CC2)nc2c1CCCC2 [compound 1957]
- class [4]: 3 (Class 3 The value of percent of control at 10^−7 M was more than 60% or the value of IC50 was more than 200 nM.)

Structure (SMILES): Cc1cc(C(=O)N[C@H]2CC[C@@H](Nc3nc(C)c(C)c(N(C)C)n3)CC2)ccc1Br [compound 2852, 4-bromo-N-(cis-4-{[4-(dimethylamino)-5,6-dimethylpyrimidin-2-yl]amino}cyclohexyl)-3-methylbenzamide]
- class [2]: 1 (Class 1: The value of percent of control at 10^−7 M was less than 40% or the value of IC50 was less than 50 nM.)

— patent US20050197350A1, “Novel quinoline, tetrahydroquinazoline, and pyrimidine derivatives and methods of treatment related to the use thereof” (TAISHO PHARMACEUTICAL CO., LTD., priority 2003, published 2005)
